Experimental data published in ChEMBL document CHEMBL3871297, “Squarate-based carbocyclic nucleosides: Syntheses, computational analyses and anticancer/antiviral evaluation” (2017).

Assay: Cytotoxicity against human SW620 cells assessed as cell growth at 10 uM after 2 days by SRB assay relative to control
Assay type: functional
Details: SW-620, 48 h, read-out: Activity

Compound | growth at 10 µM
O=c1c(O)c(N[C@H]2C=C[C@@H](CO)C2)c1=O | 112%

Assay: Cytotoxicity against human OVCAR4 cells assessed as cell growth at 10 uM after 2 days by SRB assay relative to control
Assay type: functional
Details: OVCAR-4, 48 h, read-out: Activity

Compound | growth at 10 µM
O=c1c(O)c(N[C@H]2C=C[C@@H](CO)C2)c1=O | 102%

Assay: Cytotoxicity against human HCC2998 cells assessed as cell growth at 10 uM after 2 days by SRB assay relative to control
Assay type: functional
Details: HCC 2998, 48 h, read-out: Activity

Compound | growth at 10 µM
O=c1c(O)c(N[C@H]2C=C[C@@H](CO)C2)c1=O | 106%

Assay: Cytotoxicity against human HL-60(TB) cells assessed as cell growth at 10 uM after 2 days by SRB assay relative to control
Assay type: functional
Details: HL-60, 48 h, read-out: Activity

Compound | growth at 10 µM
O=c1c(O)c(N[C@H]2C=C[C@@H](CO)C2)c1=O | 100%

Assay: Cytotoxicity against human M14 cells assessed as cell growth at 10 uM after 2 days by SRB assay relative to control
Assay type: functional
Details: M14, 48 h, read-out: Activity

Compound | growth at 10 µM
O=c1c(O)c(N[C@H]2C=C[C@@H](CO)C2)c1=O | 111%

Assay: Cytotoxicity against human Hs 578T cells assessed as cell growth at 10 uM after 2 days by SRB assay relative to control
Assay type: functional
Details: 48 h, read-out: Activity

Compound | growth at 10 µM
O=c1c(O)c(N[C@H]2C=C[C@@H](CO)C2)c1=O | 146%

Assay: Cytotoxicity against human SNB19 cells assessed as cell growth at 10 uM after 2 days by SRB assay relative to control
Assay type: functional
Details: SNB-19, 48 h, read-out: Activity

Compound | growth at 10 µM
O=c1c(O)c(N[C@H]2C=C[C@@H](CO)C2)c1=O | 105%

Assay: Cytotoxicity against human K562 cells assessed as cell growth at 10 uM after 2 days by SRB assay relative to control
Assay type: functional
Details: K562, 48 h, read-out: Activity

Compound | growth at 10 µM
O=c1c(O)c(N[C@H]2C=C[C@@H](CO)C2)c1=O | 104%

Assay: Cytotoxicity against human SF268 cells assessed as cell growth at 10 uM after 2 days by SRB assay relative to control
Assay type: functional
Details: SF-268, 48 h, read-out: Activity

Compound | growth at 10 µM
O=c1c(O)c(N[C@H]2C=C[C@@H](CO)C2)c1=O | 117%

Assay: Cytotoxicity against human HCT15 cells assessed as cell growth at 10 uM after 2 days by SRB assay relative to control
Assay type: functional
Details: HCT-15, 48 h, read-out: Activity

Compound | growth at 10 µM
O=c1c(O)c(N[C@H]2C=C[C@@H](CO)C2)c1=O | 134%

Assay: Cytotoxicity against human UACC62 cells assessed as cell growth at 10 uM after 2 days by SRB assay relative to control
Assay type: functional
Details: UACC-62, 48 h, read-out: Activity

Compound | growth at 10 µM
O=c1c(O)c(N[C@H]2C=C[C@@H](CO)C2)c1=O | 118%

Assay: Cytotoxicity against human SNB75 cells assessed as cell growth at 10 uM after 2 days by SRB assay relative to control
Assay type: functional
Details: SNB-75, 48 h, read-out: Activity

Compound | growth at 10 µM
O=c1c(O)c(N[C@H]2C=C[C@@H](CO)C2)c1=O | 103%

Assay: Cytotoxicity against human OVCAR5 cells assessed as cell growth at 10 uM after 2 days by SRB assay relative to control
Assay type: functional
Details: OVCAR-5, 48 h, read-out: Activity

Compound | growth at 10 µM
O=c1c(O)c(N[C@H]2C=C[C@@H](CO)C2)c1=O | 108%

Assay: Cytotoxicity against human CCRF-CEM cells assessed as cell growth at 10 uM after 2 days by SRB assay relative to control
Assay type: functional
Details: 48 h, read-out: Activity

Compound | growth at 10 µM
O=c1c(O)c(N[C@H]2C=C[C@@H](CO)C2)c1=O | 116%

Assay: Cytotoxicity against human OVCAR8 cells assessed as cell growth at 10 uM after 2 days by SRB assay relative to control
Assay type: functional
Details: OVCAR-8, 48 h, read-out: Activity

Compound | growth at 10 µM
O=c1c(O)c(N[C@H]2C=C[C@@H](CO)C2)c1=O | 107%

Assay: Cytotoxicity against human IGROV1 cells assessed as cell growth at 10 uM after 2 days by SRB assay relative to control
Assay type: functional
Details: IGROV-1, 48 h, read-out: Activity

Compound | growth at 10 µM
O=c1c(O)c(N[C@H]2C=C[C@@H](CO)C2)c1=O | 111%

Assay: Cytotoxicity against human MDA-MB-435 cells assessed as cell growth at 10 uM after 2 days by SRB assay relative to control
Assay type: functional
Details: MDA-MB-435, 48 h, read-out: Activity

Compound | growth at 10 µM
O=c1c(O)c(N[C@H]2C=C[C@@H](CO)C2)c1=O | 120%

Assay: Cytotoxicity against human U251 cells assessed as cell growth at 10 uM after 2 days by SRB assay relative to control
Assay type: functional
Details: U-251, 48 h, read-out: Activity

Compound | growth at 10 µM
O=c1c(O)c(N[C@H]2C=C[C@@H](CO)C2)c1=O | 112%

Assay: Cytotoxicity against human EKVX cells assessed as cell growth at 10 uM after 2 days by SRB assay relative to control
Assay type: functional
Details: 48 h, read-out: Activity

Compound | growth at 10 µM
O=c1c(O)c(N[C@H]2C=C[C@@H](CO)C2)c1=O | 129%

Assay: Cytotoxicity against human HCT116 cells assessed as cell growth at 10 uM after 2 days by SRB assay relative to control
Assay type: functional
Details: HCT-116, 48 h, read-out: Activity

Compound | growth at 10 µM
O=c1c(O)c(N[C@H]2C=C[C@@H](CO)C2)c1=O | 108%

Assay: Cytotoxicity against human SN12C cells assessed as cell growth at 10 uM after 2 days by SRB assay relative to control
Assay type: functional
Details: 48 h, read-out: Activity

Compound | growth at 10 µM
O=c1c(O)c(N[C@H]2C=C[C@@H](CO)C2)c1=O | 120%

Assay: Cytotoxicity against human HOP92 cells assessed as cell growth at 10 uM after 2 days by SRB assay relative to control
Assay type: functional
Details: HOP-92, 48 h, read-out: Activity

Compound | growth at 10 µM
O=c1c(O)c(N[C@H]2C=C[C@@H](CO)C2)c1=O | 121%

Assay: Cytotoxicity against human SKOV3 cells assessed as cell growth at 10 uM after 2 days by SRB assay relative to control
Assay type: functional
Details: SK-OV-3, 48 h, read-out: Activity

Compound | growth at 10 µM
O=c1c(O)c(N[C@H]2C=C[C@@H](CO)C2)c1=O | 109%

Assay: Cytotoxicity against human MDA-MB-231 cells assessed as cell growth at 10 uM after 2 days by SRB assay relative to control
Assay type: functional
Details: MDA-MB-231, 48 h, read-out: Activity

Compound | growth at 10 µM
O=c1c(O)c(N[C@H]2C=C[C@@H](CO)C2)c1=O | 150%

Assay: Cytotoxicity against human NCI-H23 cells assessed as cell growth at 10 uM after 2 days by SRB assay relative to control
Assay type: functional
Details: NCI-H23, 48 h, read-out: Activity

Compound | growth at 10 µM
O=c1c(O)c(N[C@H]2C=C[C@@H](CO)C2)c1=O | 107%

Assay: Cytotoxicity against human NCI-H460 cells assessed as cell growth at 10 uM after 2 days by SRB assay relative to control
Assay type: functional
Details: NCI-H460, 48 h, read-out: Activity

Compound | growth at 10 µM
O=c1c(O)c(N[C@H]2C=C[C@@H](CO)C2)c1=O | 114%

Assay: Cytotoxicity against human HOP62 cells assessed as cell growth at 10 uM after 2 days by SRB assay relative to control
Assay type: functional
Details: HOP-62, 48 h, read-out: Activity

Compound | growth at 10 µM
O=c1c(O)c(N[C@H]2C=C[C@@H](CO)C2)c1=O | 101%

Assay: Cytotoxicity against human UACC257 cells assessed as cell growth at 10 uM after 2 days by SRB assay relative to control
Assay type: functional
Details: UACC-257, 48 h, read-out: Activity

Compound | growth at 10 µM
O=c1c(O)c(N[C@H]2C=C[C@@H](CO)C2)c1=O | 100%

Assay: Cytotoxicity against human ACHN cells assessed as cell growth at 10 uM after 2 days by SRB assay relative to control
Assay type: functional
Details: 48 h, read-out: Activity

Compound | growth at 10 µM
O=c1c(O)c(N[C@H]2C=C[C@@H](CO)C2)c1=O | 108%

Assay: Cytotoxicity against human NCI-H322M cells assessed as cell growth at 10 uM after 2 days by SRB assay relative to control
Assay type: functional
Details: 48 h, read-out: Activity

Compound | growth at 10 µM
O=c1c(O)c(N[C@H]2C=C[C@@H](CO)C2)c1=O | 120%

Assay: Cytotoxicity against human NCI-H522 cells assessed as cell growth at 10 uM after 2 days by SRB assay relative to control
Assay type: functional
Details: NCI-H522, 48 h, read-out: Activity

Compound | growth at 10 µM
O=c1c(O)c(N[C@H]2C=C[C@@H](CO)C2)c1=O | 91.6%

Assay: Cytotoxicity against human T47D cells assessed as cell growth at 10 uM after 2 days by SRB assay relative to control
Assay type: functional
Details: 48 h, read-out: Activity

Compound | growth at 10 µM
O=c1c(O)c(N[C@H]2C=C[C@@H](CO)C2)c1=O | 107%

Assay: Cytotoxicity against human MCF7 cells assessed as cell growth at 10 uM after 2 days by SRB assay relative to control
Assay type: functional
Details: MCF7, 48 h, read-out: Activity

Compound | growth at 10 µM
O=c1c(O)c(N[C@H]2C=C[C@@H](CO)C2)c1=O | 107%

Assay: Cytotoxicity against human 786-0 cells assessed as cell growth at 10 uM after 2 days by SRB assay relative to control
Assay type: functional
Details: 786-0, 48 h, read-out: Activity

Compound | growth at 10 µM
O=c1c(O)c(N[C@H]2C=C[C@@H](CO)C2)c1=O | 102%

Assay: Cytotoxicity against human COLO205 cells assessed as cell growth at 10 uM after 2 days by SRB assay relative to control
Assay type: functional
Details: COLO 205, 48 h, read-out: Activity

Compound | growth at 10 µM
O=c1c(O)c(N[C@H]2C=C[C@@H](CO)C2)c1=O | 134%

Assay: Cytotoxicity against human NCI-H226 cells assessed as cell growth at 10 uM after 2 days by SRB assay relative to control
Assay type: functional
Details: NCI-H226, 48 h, read-out: Activity

Compound | growth at 10 µM
O=c1c(O)c(N[C@H]2C=C[C@@H](CO)C2)c1=O | 157%

Assay: Cytotoxicity against human HT-29 cells assessed as cell growth at 10 uM after 2 days by SRB assay relative to control
Assay type: functional
Details: HT-29, 48 h, read-out: Activity

Compound | growth at 10 µM
O=c1c(O)c(N[C@H]2C=C[C@@H](CO)C2)c1=O | 105%

Assay: Cytotoxicity against human NCI/ADR-RES cells assessed as cell growth at 10 uM after 2 days by SRB assay relative to control
Assay type: functional
Details: 48 h, read-out: Activity

Compound | growth at 10 µM
O=c1c(O)c(N[C@H]2C=C[C@@H](CO)C2)c1=O | 116%
